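Cells were grown in 96-well plates and exposed to each compound for 48 hours at five concentrations; endpoints were interpolated linearly between bracketing concentrations, or set to the highest concentration if not reached. GI50 marks 50% less growth. Definition used: TGI = concentration required for complete inhibition of growth.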 Where a SMILES comes first, the peptide text is derived from it. [ ]: non-standard residue; d: D form. The star is where a group is joined. Cbz = O=C(OCc1ccccc1)*; Aib = CC(C)(N)C(=O)O
Key:
Assay in all cases: NCI anticancer screen, dose series, 48 h
SNB-78 CNS = system: SNB-78 CNS
KM20L2 colon = system: KM20L2 colon
ACHN renal = system: ACHN renal
HOP-18 NSCLC = system: HOP-18 NSCLC
A498 renal = system: A498 renal
NCI-H522 lung = system: NCI-H522 lung
LOX IMVI melanoma = system: LOX IMVI melanoma
HCC-2998 colon = system: HCC-2998 colon
HCT-116 colon = system: HCT-116 colon
KM12 colon = system: KM12 colon
SR leukemia = system: SR leukemia
UACC-257 melanoma = system: UACC-257 melanoma
MDA-MB-435 = system: MDA-MB-435
T-47D breast = system: T-47D breast

Row | Compound | TGI (SNB-78 CNS) [µM] | TGI (KM20L2 colon) [µM] | TGI (ACHN renal) [µM] | TGI (HOP-18 NSCLC) [µM] | TGI (A498 renal) [µM] | TGI (NCI-H522 lung) [µM] | TGI (LOX IMVI melanoma) [µM] | TGI (HCC-2998 colon) [µM] | TGI (HCT-116 colon) [µM] | TGI (KM12 colon) [µM] | TGI (SR leukemia) [µM] | TGI (UACC-257 melanoma) [µM] | TGI (MDA-MB-435) [µM] | TGI (T-47D breast) [µM] | GI50 (MDA-MB-435) [µM] | GI50 (T-47D breast) [µM]
1 | CSc1nc(-c2ccccc2)nc(=[N+]2CCOCC2)s1 | > 100 | > 100 | > 100 | > 100 | > 100 | 84.1 | > 100 | > 100 | > 100 | > 100 | 67.5 |  |  |  |  | 
2 | Cc1cc(OCC(O)CO)ccc1Cl (stereo unspecified) |  | > 100 | > 100 | > 100 | > 100 | > 100 | > 100 | > 100 | > 100 | > 100 | > 100 | > 100 |  |  |  | 
3 | CC(C)(C)OC(=O)NNCC(O)COc1ccccc1 (stereo unspecified) |  |  | > 100 |  | > 100 | > 100 | > 100 | > 100 | > 100 |  | > 100 | > 100 | > 100 | > 100 |  | 
4 | Cc1cc(O)c(C(C)C)cc1C(=S)Nc1ccc(Cl)cc1 |  |  | 25.7 |  | 29.7 | 17.8 | 24 | 33 | 26 | 23 | 20.4 | 23.8 | 23.1 | 29.2 |  | 
5 | COc1ccc(/C=C2\OC(=O)C(Cl)=C2c2ccc(OC)c(Cl)c2)cc1 |  |  | > 100 |  | 39.1 | 79 | > 100 | > 100 | > 100 | > 100 | > 100 | > 100 | 59.9 | > 100 |  | 
6 | ClC1=C(Cl)C2OC3C=CCC3OC2C(Cl)=C1Cl (stereo unspecified) |  |  | > 100 |  | > 100 | > 100 | > 100 | 88.4 | > 100 | > 100 | > 100 | > 100 | > 100 | > 100 |  | 
7 | O=[N+]([O-])c1ccc(Nc2cccc3c2[nH]c2c(-c4ccccc4)nccc23)c([N+](=O)[O-])c1 | > 100 | > 100 |  | > 100 | > 100 | > 100 | > 100 | > 100 | > 100 | > 100 |  | > 100 |  |  |  | 
8 | O=S(=O)(O)c1cc(N=[N+]([O-])c2ccc(N=Nc3ccccc3)cc2S(=O)(=O)O)ccc1/C=C/c1ccc(N=[N+]([O-])c2ccc(N=Nc3ccccc3)cc2S(=O)(=O)O)cc1S(=O)(=O)O | > 100 |  |  | > 100 | > 100 | > 100 | > 100 | > 100 | > 100 | > 100 |  | > 100 |  |  |  | 
9 | CC(C)(NC(=O)C(C)(C)NC(=O)OCc1ccccc1)C(=O)O (Cbz-[Aib]-[Aib]-OH) |  |  | > 100 |  | > 100 | > 100 | > 100 | > 100 | > 100 | > 100 | > 100 | > 100 | > 100 | > 100 |  | 
10 | Nc1ncc2c(n1)-c1ccccc1OC2 | > 100 | > 100 |  | > 100 | > 100 | > 100 | > 100 | > 100 | > 100 | > 100 |  | > 100 |  |  |  | 
11 | CCOC(=O)C1=C(C)N(Cc2ccccc2)C2(O)C(OC)CC(=O)C3C(=O)N(c4ccccc4)C(=O)C132 (stereo unspecified) |  |  | 48.4 |  | 50.6 | 26.3 | > 100 | 53.5 | > 100 | 55.6 | 86.8 | 37.7 | > 100 | 30.5 |  | 
12 | COC(=O)C(CNC(=O)/C=C/c1ccc(OC(C)=O)c(OC(C)=O)c1)NC(=O)/C=C/c1ccc(OC(C)=O)c(OC(C)=O)c1 (stereo unspecified) |  |  | > 100 |  | > 100 | > 100 | > 100 | > 100 | > 100 | > 100 | > 100 | > 100 | > 100 | > 100 |  | 
13 | O=C(O)c1cccc(S(=O)(=O)NN2C(=O)CSC2c2c(O)ccc3ccccc23)c1 (stereo unspecified) |  |  | > 100 |  | 46.2 | 77.6 | 60 | > 100 | 38.5 | > 100 | 59.6 | > 100 | > 100 | 80.5 |  | 
14 | COC(=O)/C=C\C(C#N)(C#N)N=Cc1ccc(Br)cc1 |  |  | 8.92 |  | 29.8 | 2.95 | 5.26 | 32.1 | > 60.5 | 29.3 | > 100 | 28 | 22.4 | 14 |  | 
15 | Nc1c(C(=O)O)nnc2cc(Cl)ccc12 |  |  | > 100 |  | > 100 | > 100 | > 100 | > 100 | > 100 | > 100 | > 100 | > 100 | > 100 | > 100 |  | 
16 | Cc1nccn1S(=O)(=O)c1ccc(Cl)cc1 |  |  | > 100 |  | > 100 | > 100 | > 100 | 88 | > 100 | > 100 | > 100 | > 100 | 48.8 | > 100 |  | 
17 | C=C1CC(O)C2C(=C)C(=O)OC2C2C(C)C(=O)CC12 (stereo unspecified) |  |  | 17.9 |  | 63.3 | 19.9 | 80.2 | 34.4 | > 100 | 56.9 | 53.2 | 26.5 | 33.1 | 73 |  | 

Row | Compound | TGI (SNB-78 CNS) [µM] | TGI (KM20L2 colon) [µM] | TGI (ACHN renal) [µM] | TGI (HOP-18 NSCLC) [µM] | TGI (A498 renal) [µM] | TGI (NCI-H522 lung) [µM] | TGI (LOX IMVI melanoma) [µM] | TGI (HCC-2998 colon) [µM] | TGI (HCT-116 colon) [µM] | TGI (KM12 colon) [µM] | TGI (SR leukemia) [µM] | TGI (UACC-257 melanoma) [µM] | TGI (MDA-MB-435) [µM] | TGI (T-47D breast) [µM] | GI50 (MDA-MB-435) [µM] | GI50 (T-47D breast) [µM]
18 | O=C(CN1CCN(c2ccccn2)CC1)N1CCCn2c1nc1ccccc1c2=O |  |  | > 100 |  | > 100 | > 100 | > 100 | > 100 | > 100 | > 100 | > 100 | > 100 | > 100 | > 100 |  | 
19 | Cc1ccc2c(c1)Nc1ccccc1P2(=O)O |  |  | > 100 |  | > 100 | > 100 | > 100 | > 100 | > 100 | > 100 | > 100 | > 100 | > 100 | > 100 |  | 
20 | OCC(S)CS.[Bi] (stereo unspecified) |  |  | 30.6 |  | 56.3 | 12.9 | > 100 | 27.5 | 44.4 | 46.2 | > 100 | 27.9 | 35.6 | 31.5 |  | 
21 | Cc1cc(OCc2nnc3n2N=C(c2cc(F)c(Cl)cc2Cl)/C(=C/c2ccc(-c4ccc(Cl)cc4)o2)S3)ccc1Cl |  |  | > 50 |  | > 50 | > 50 | > 50 | > 50 | > 50 | > 50 | > 50 | > 50 | > 50 | > 50 |  | 
22 | CCCCCCCCCCCCCCCCCCNc1nc(=O)n(C2CC(OP(=O)(O)OCC3OC(n4cc(F)c(=O)[nH]c4=O)CC3O)C(CO)O2)cc1F (stereo unspecified) |  |  | > 100 |  | > 100 | > 100 | > 100 | 52.9 | > 100 | 27.8 | 35.1 | > 100 | > 100 | > 100 |  | 
23 | Cc1ccc(S(=O)(=O)N/N=C\c2c3ccccc3[n+](C)c3ccccc23)cc1 | > 100 | > 100 | > 100 |  | > 100 | > 100 | 52.9 | > 100 | > 100 | > 100 |  | > 100 |  |  |  | 
24 | Nc1ccn(CC(O)c2cc3ccccc3[nH]2)c(=O)n1 (stereo unspecified) |  |  | > 100 |  | > 100 | > 100 | > 100 | > 100 | > 100 | > 100 | > 100 | > 100 | > 100 | > 100 |  | 
25 | CC(C)(C)CC(C)(C)NCC(O)COc1ccc(C(C)(C)c2ccc(OCC(O)CNC(C)(C)CC(C)(C)C)cc2)cc1 (stereo unspecified) | 3.63 | 2.88 | 3.17 |  | 3.03 | 3.02 | 1.35 | 1.21 | 5.38 | 2.31 |  |  | 1.73 | 3.48 | 0.513 | 1.66
26 | CCC(C)N1CN(c2ccccc2)C2(CCN(CCCC3(c4ccc(F)cc4)OCCO3)CC2)C1=O (stereo unspecified) |  |  | 14.9 |  | 37 | 10.2 | 21.6 | 26.9 | 24.9 | > 50.6 | 23.5 | 4.24 | 45.6 | 42.5 |  | 
27 | Fc1ccc2c(c1)nc1n2C(c2c(F)cccc2F)SC1 (stereo unspecified) |  |  | > 100 |  | > 100 | > 100 | > 100 | > 100 | > 100 | 64.4 | 58.5 | > 100 | > 100 | > 100 |  | 
28 | CC(C)(CO)CNc1cc(Cl)nc(N)n1 |  |  | > 100 |  | > 100 | > 100 | > 100 | > 100 | > 100 | > 100 | > 100 | > 100 | > 100 | > 100 |  | 
29 | CCCCOc1ccc(S(=O)(=O)/N=C(\NO)Nc2ccc(Cl)cc2)cc1 |  |  | 28.2 |  | 26.7 | 30.1 | 31 | 28.9 | 30.6 | 31.7 | 67.3 | 30.4 | 30.6 | 26.2 |  | 
30 | O=C(O)C1CSC2(CCCN(Cc3ccccc3)C2)N1 (stereo unspecified) |  |  | > 100 |  | > 100 | > 100 | > 100 | > 100 | > 100 | > 100 | 34.4 | > 100 | > 100 | > 100 |  | 
31 | OC(CCl)CN1CC[N+]2(CC1)CC[N+]1(CCN(CC(O)CCl)CC1)CC2 (stereo unspecified) |  | > 50 | > 50 | > 50 | > 50 | > 50 |  | > 50 | > 50 | > 50 | > 50 |  |  |  |  | 
32 | O=C(Cn1c(=O)oc2ccc(C(=O)c3cccc(Cl)c3)cc21)c1ccccc1 |  |  | > 100 |  | 95.8 | > 100 | > 100 | 78.6 |  |  | > 100 | > 100 | > 100 | > 100 |  | 
33 | O=C1Nc2ccccc2SC1=C(C(=O)c1ccccc1)C(=O)c1ccccc1 |  |  | > 100 |  | > 80.3 | 87.1 | > 100 | 63.8 | > 100 | > 100 | > 100 | > 88 | 55.6 | > 100 |  | 
34 | CSc1c(C)n([O-])c2cc(Cl)c(Cl)cc2[n+]1=O |  |  | 30.7 |  | 61.6 | 29.3 | 41.3 | 38 | 32 | > 60.7 | 5.69 | 34.8 | 36.7 | 50 |  | 

From PubChem BioAssay (NCI)
